Consider 32 molecules from patent publication US7485641B2, “Substituted 3-amino-pyrrolidino-4-lactams” (Pfizer, Inc., priority 2006, dated 2009).

The assay has as its target T1, DPP-IV (Homo sapiens, UniProt P27487).
T1 construct: purchased Enzyme Systems Products SPE-01
Nature of the assay: In vitro assay for dipeptidyl peptidase inhibition. The note with it: for inhibition at 0.3 µM: at 300 nM, read-out: DPP-IV Percent Inhibition at 300 nM. The format is biochemical.

Setting [1] is: n-value given in brackets, read-out: DPP-IV IC50.

Where a name gives a salt, the structure may show the parent alone. Read-outs that look alike come from different tables or passages of the source.

T1 sequence (P27487 whole entry, species assumed): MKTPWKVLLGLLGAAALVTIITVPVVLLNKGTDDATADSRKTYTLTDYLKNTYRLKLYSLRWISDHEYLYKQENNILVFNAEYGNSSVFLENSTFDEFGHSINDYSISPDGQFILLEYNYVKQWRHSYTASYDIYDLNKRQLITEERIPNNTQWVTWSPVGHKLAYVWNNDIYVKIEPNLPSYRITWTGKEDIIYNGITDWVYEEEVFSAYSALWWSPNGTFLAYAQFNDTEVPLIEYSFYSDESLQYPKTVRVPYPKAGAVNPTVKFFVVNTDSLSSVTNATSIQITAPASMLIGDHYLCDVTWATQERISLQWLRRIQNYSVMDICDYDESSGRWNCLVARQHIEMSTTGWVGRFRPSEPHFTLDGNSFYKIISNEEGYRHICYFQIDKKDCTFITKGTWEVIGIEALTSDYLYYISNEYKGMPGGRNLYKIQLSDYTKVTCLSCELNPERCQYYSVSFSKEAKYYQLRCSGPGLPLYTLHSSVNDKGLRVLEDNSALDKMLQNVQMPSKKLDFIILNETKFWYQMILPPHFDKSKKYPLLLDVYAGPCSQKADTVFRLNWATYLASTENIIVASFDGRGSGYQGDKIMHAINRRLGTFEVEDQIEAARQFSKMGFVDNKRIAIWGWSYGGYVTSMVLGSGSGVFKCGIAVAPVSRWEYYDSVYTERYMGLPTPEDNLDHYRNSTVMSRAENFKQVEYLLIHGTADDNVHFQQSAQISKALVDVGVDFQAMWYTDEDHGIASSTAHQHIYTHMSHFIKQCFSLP

As to `N[C@H]1CN(c2cc(N3CCc4nocc4C3)ncn2)C[C@@H]1N1CC(F)(F)CCC1=O` [Example 4, 1-((3S,4S)-4-amino-1-(6-(6,7-dihydroisoxazolo[4,3-c]pyridin-5(4H)-yl)pyrimidin-4-yl)pyrrolidin-3-yl)-5,5-difluoropiperidin-2-one], under setting [1], the IC50 amounted to 6.08 nM.

`CC(C)(C)c1nc(N2C[C@H](N)[C@@H](N3CCCCC3=O)C2)cc(N2CCC(F)(F)C2)n1` [Example 22, 1-((3S,4S)-4-amino-1-(2-tert-butyl-6-(3,3-difluoropyrrolidin-1-yl)pyrimidin-4-yl)pyrrolidin-3-yl)piperidin-2-one]: under setting [1], the IC50 is 832 nM. On to `Cn1nc(C(F)(F)F)c2c1CCN(c1ncnc(N3C[C@H](N)[C@@H](N4CCCCC4=O)C3)n1)C2` [Example 67, 1-((3S,4S)-4-amino-1-(4-(1-methyl-3-(trifluoromethyl)-6,7-dihydro-1H-pyrazolo[4,3-c]pyridin-5(4H)-yl)-1,3,5-triazin-2-yl)pyrrolidin-3-yl)piperidin-2-one], for which the inhibition – broadly, the relative decrease from the control value, in per cent – at 0.3 µM (n-value given in brackets) was 17.9%.

Turning to `N[C@H]1CN(c2cc(OCC(F)(F)C(F)F)ncn2)C[C@@H]1N1CCCCC1=O` [Example 94, 1-((3S,4S)-4-Amino-1-(6-(2,2,3,3-tetrafluoropropoxy)pyrimidin-4-yl)pyrrolidin-3-yl)piperidin-2-one trifluoroacetate], the inhibition at 0.3 µM (n-value given in brackets) was 23.2%. With `N[C@H]1CN(c2cc(-c3ccccc3)ncn2)C[C@@H]1N1CCCC1=O` [Example 6, 1-((3S,4S)-4-Amino-1-(6-phenylpyrimidin-4-yl)pyrrolidin-3-yl)pyrrolidin-2-one dihydrochloride], the IC50 under setting [1] was determined as 488 nM. On to `COc1ccc(-c2cc(N3C[C@H](N)[C@@H](N4CCCCC4=O)C3)ncn2)cc1` [Example 86, 1-{(3S,4S)-4-Amino-1-[6-(4-methoxy-phenyl)-pyrimidin-4-yl]-pyrrolidin-3-yl}-piperidin-2-one hydrochloride], for which, under setting [1], the IC50 is 55.3 nM. `COc1ccc2c(N3C[C@H](N)[C@@H](N4CC(F)(F)CCC4=O)C3)ncnc2c1` [Example 98, 1-((3S,4S)-4-amino-1-(7-methoxyquinazolin-4-yl)pyrrolidin-3-yl)-5,5-difluoropiperidin-2-one]: the IC50 under setting [1] is 34.2 nM. For the molecule `COc1ccc2oc(C(=O)N3C[C@H](N)[C@@H](N4CC(F)(F)CCC4=O)C3)cc2c1` [Example 155, 1-((3S,4S)-4-amino-1-(5-methoxybenzofuran-2-carbonyl)pyrrolidin-3-yl)-5,5-difluoropiperidin-2-one], under setting [1], the IC50 was 102 nM. Turning to `Cc1ccc(C)c2c1CN(c1cc(N3C[C@H](N)[C@@H](N4CCCCC4=O)C3)ncn1)C2` [Example 55, 1-{(3S,4S)-4-Amino-1-[6-(4,7-dimethyl-1,3-dihydro-isoindol-2-yl)-pyrimidin-4-yl]-pyrrolidin-3-yl}-piperidin-2-one], the IC50 under setting [1] is 101 nM. Regarding `N[C@H]1CN(c2ncnc3cc(Oc4ccc(OC(F)(F)F)cc4)ccc23)C[C@@H]1N1CCCCC1=O` [Example 131, 1-((3S,4S)-4-amino-1-(7-(4-(trifluoromethoxy)phenoxy)quinazolin-4-yl)pyrrolidin-3-yl)piperidin-2-oneformate], the IC50 under setting [1] came to 189 nM. In the case of `N[C@H]1CN(c2cc(N3CCc4noc(C(F)(F)F)c4C3)ncn2)C[C@@H]1N1CCCCC1=O` [Example 81, 1-((3S,4S)-4-amino-1-(6-(3-(trifluoromethyl)-6,7-dihydroisoxazolo[4,3-c]pyridin-5(4H)-yl)pyrimidin-4-yl)pyrrolidin-3-yl)piperidin-2-one trifluoroacetate], under “n-value given in brackets”, the inhibition at 0.3 µM was 44.5%. Turning to `N[C@H]1CN(c2cc(N3CCc4ccccc4C3)ncn2)C[C@@H]1N1CCCC1=O` [Example 57, 1-((3S,4S)-4-Amino-1-(6-(3,4-dihydroisoquinolin-2(1H)-yl)pyrimidin-4-yl)pyrrolidin-3-yl)pyrrolidin-2-onehydrochloride], under setting [1], the IC50 is 317 nM. In the case of `COc1ccc2ncnc(N3C[C@H](N)[C@@H](N4CCCCC4=O)C3)c2c1` [Example 107, 1-((3S,4S)-4-amino-1-(6-methoxyquinazolin-4-yl)pyrrolidin-3-yl)piperidin-2-one], under “n-value given in brackets”, the inhibition at 0.3 µM came out at 47%. As for `CCS(=O)(=O)Oc1ccc2c(N3C[C@H](N)[C@@H](N4CCCCC4=O)C3)ncnc2c1` [Example 134, 4-((3S,4S)-3-amino-4-(2-oxopiperidin-1-yl)pyrrolidin-1-yl)quinazolin-7-yl ethanesulfonate], the IC50 under setting [1] was found to be 218 nM. In the case of `N[C@H]1CN(c2cc(OCC(F)(F)F)ncn2)C[C@@H]1N1CCCCC1=O` [Example 92, 1-((3S,4S)-4-Amino-1-(6-(2,2,2-trifluoroethoxy)pyrimidin-4-yl)pyrrolidin-3-yl)piperidin-2-one trifluoroacetate], the inhibition at 0.3 µM (n-value given in brackets) amounted to 28.9%.

`N[C@H]1CN(c2cc(Oc3cccc(F)c3)ncn2)C[C@@H]1N1CCCCC1=O` [Example 88, 1-((3S,4S)-4-amino-1-(6-(3-fluorophenoxy)pyrimidin-4-yl)pyrrolidin-3-yl)piperidin-2-one]: the IC50 under setting [1] was 314 nM. In the case of “1-((3S,4S)-4-Amino-1-(4-((R)-3-fluoropyrrolidin-1-yl)-1,3,5-triazin-2-yl)pyrrolidin-3-yl)piperidin-2-onetrifluoroacetate [Example 27]”, the IC50 under setting [1] was 92.2 nM. On the same count and under the same terms, the result for `CC1(O)CCN(c2ncnc(N3C[C@H](N)[C@@H](N4CCCCC4=O)C3)n2)C1` (stereo partly drawn) [Example 44, 1-((3S,4S)-4-amino-1-(4-(3-hydroxy-3-methylpyrrolidin-1-yl)-1,3,5-triazin-2-yl)pyrrolidin-3-yl)piperidin-2-onetrifluoroacetate] reads 316 nM; that for `CC(C)Oc1ccc2c(N3C[C@H](N)[C@@H](N4CCCCC4=O)C3)ncnc2c1` [Example 115, 1-((3S,4S)-4-amino-1-(7-isopropoxyquinazolin-4-yl)pyrrolidin-3-yl)piperidin-2-one], 29.7 nM; that for `Cc1nc(N2C[C@H](N)[C@@H](N3CC(F)(F)CCC3=O)C2)cc(N2CCC(F)(F)C2)n1` [Example 3, 1-((3S,4S)-4-amino-1-(6-(3,3-difluoropyrrolidin-1-yl)-2-methylpyrimidin-4-yl)pyrrolidin-3-yl)-5,5-difluoropiperidin-2-one], 12.6 nM.

With `N[C@H]1CN(c2ncnc(N3CC[C@@H](NC(=O)C(F)(F)F)C3)n2)C[C@@H]1N1CCCCC1=O` [Example 42, N-((R)-1-(4-((3S,4S)-3-Amino-4-(2-oxopiperidin-1-yl)pyrrolidin-1-yl)-1,3,5-triazin-2-yl)pyrrolidin-3-yl)-2,2,2-trifluoroacetamidetrifluoroacetate], the IC50 under setting [1] is 80 nM.

In the case of `N[C@H]1CN(c2nncc3ccccc23)C[C@@H]1N1CCCCC1=O` [Example 145, 1-((3S,4S)-4-amino-1-(phthalazin-1-yl)pyrrolidin-3-yl)piperidin-2-one trifluoroacetate], the IC50 under setting [1] was determined as 224 nM. For the molecule `N[C@H]1CN(C(=O)c2cc3ccc(Cl)cc3o2)C[C@@H]1N1CCCCC1=O` [Example 158, 1-((3S,4S)-4-amino-1-(6-chlorobenzofuran-2-carbonyl)pyrrolidin-3-yl)piperidin-2-onetrifluoroacetate], the IC50 (Examples 156-162, n-value in brackets, IC50's or percent inhibition at 300 nM, read-out: DPP-IV inhibition) amounted to 231 nM. Consider `N[C@H]1CN(c2ncnc3c(F)cccc23)C[C@@H]1N1CCCCC1=O` [Example 109, 1-((3S,4S)-Amino-1-(8-fluoroquinazolin-4-yl)pyrrolidin-3-yl)piperidin-2-one trifluoroacetate], for which the IC50 under setting [1] amounted to 110 nM. For `N[C@H]1CN(c2ncnc3[nH]cnc23)C[C@@H]1N1CCCCC1=O` [Example 148, 1-[(3S,4S)-4-Amino-1-(9H-purin-6-yl)-pyrrolidin-3-yl]-piperidin-2-one hydrochloride], under setting [1], the IC50 was 415 nM.

Regarding `CCC(CC)c1ccc2c(N3C[C@H](N)[C@@H](N4CCCCC4=O)C3)ncnc2c1` [Example 117, 1-((3S,4S)-4-amino-1-(7-(pentan-3-yl)quinazolin-4-yl)pyrrolidin-3-yl)piperidin-2-one], under setting [1], the IC50 was 206 nM. In the case of `Cc1nc(N2C[C@H](N)[C@@H](N3CCCCC3=O)C2)cc(N2CCCC(F)(F)C2)n1` [Example 34, 1-((3S,4S)-4-amino-1-(6-(3,3-difluoropiperidin-1-yl)-2-methylpyrimidin-4-yl)pyrrolidin-3-yl)piperidin-2-onetrifluoroacetate], the IC50 under setting [1] amounted to 277 nM. Take `CCSc1ccc2c(N3C[C@H](N)[C@@H](N4CC(F)(F)CCC4=O)C3)ncnc2c1` [Example 99, 1-((3S,4S)-4-amino-1-(7-(ethylthio)quinazolin-4-yl)pyrrolidin-3-yl)-5,5-difluoropiperidin-2-one]: under setting [1], the IC50 was found to be 38.4 nM.

`CC(C)(O)c1ccc2c(N3C[C@H](N)[C@@H](N4CCCCC4=O)C3)ncnc2c1` [Example 126, 1-((3S,4S)-4-amino-1-(7-(2-hydroxypropan-2-yl)quinazolin-4-yl)pyrrolidin-3-yl)piperidin-2-one]: the IC50 under setting [1] worked out at 66.8 nM.

For `N[C@H]1CN(c2cc(N3CCC(F)(F)C3)nc(C(F)(F)F)n2)C[C@@H]1N1CC(F)(F)CCC1=O` [Example 13, 1-((3S,4S)-4-amino-1-(6-(3,3-difluoropyrrolidin-1-yl)-2-(trifluoromethyl)pyrimidin-4-yl)pyrrolidin-3-yl)-5,5-difluoropiperidin-2-one], under setting [1], the IC50 stood at 56.7 nM. Turning to `N#Cc1ccc(Oc2ccc3c(N4C[C@H](N)[C@@H](N5CCCCC5=O)C4)ncnc3c2)nc1` [Example 121, 6-(4-((3S,4S)-3-amino-4-(2-oxopiperidin-1-yl)pyrrolidin-1-yl)quinazolin-7-yloxy)nicotinonitrile], under setting [1], the IC50 was found to be 183 nM.

With `CC(C)c1nc(N2C[C@H](N)[C@@H](N3CCCCC3=O)C2)cc(N2CCC(F)(F)C2)n1` [Example 16, 1-((3S,4S)-4-amino-1-(6-(3,3-difluoropyrrolidin-1-yl)-2-isopropylpyrimidin-4-yl)pyrrolidin-3-yl)piperidin-2-oneformate], the IC50 under setting [1] is 136 nM.
